Reference: patent US20070049638A1, “Polymorphic forms of 3-amino-1-propanesulfonic acid” (Neurochem (International) Limited, priority 2005, published 2007)

Test: relative stability of the polymorphic forms (crystallisation and slurry interconversion experiments)
Type: physicochemical
Details: stated as 'believed to be'
Description: Thus in general, without wishing to be bound by theory, slower processes will favor the production of Form B. For example, slow addition of solvent, slow cooling rate and/or mixing will tend to favor the production of Form B, whereas fast solvent addition, fast cooling and/or minimal mixing time will favor production of Form A.
A mixture of 3-amino-1-propanesulfonic acid form A (0.7654 g) and form B (0.7880 g) were added to ethanol (5 mL) and water (1.25 mL) in a flask. The slurry was placed in a water bath at 5° C. and stirred for four hours. Solids were collected by vacuum filtration to afford form B.

Row | kinetic preference of the polymorphic form (generated from fast timescale experiments) | thermodynamic stability of the polymorphic form (between about 5 and about 60° C.) | Compound
1 | kinetically favored form |  | NCCCS(=O)(=O)O [Form A, 3-amino-1-propanesulfonic acid]
2 |  | more thermodynamically stable form | NCCCS(=O)(=O)O [Form B, 3-amino-1-propanesulfonic acid]
